Values quoted from earlier work in patent publication US9050475B2, “High SPF sunscreen compositions” (MD SOLARSCIENCES CORP., priority 2010, dated 2015).

Settings: known UV-A or UV-B protection properties of FDA-approved sunscreens

Row | SMILES | Range Covered
1 | CCCCC(CC)COC(=O)c1ccc(N(C)C)cc1 (stereo not shown) [Padimate O, octyl dimethyl PABA] | UV-B (UV-B: 290-320 nm)
2 | CC1CC(OC(=O)c2ccccc2O)CC(C)(C)C1 (stereo not shown) [Homosalate] | UV-B (UV-B: 290-320 nm)
3 | CCOCCOC(=O)C=Cc1ccc(OC)cc1 [Cinoxate, 2-ethoxyethylp-methoxycinnamate] | UV-B (UV-B: 290-320 nm)
4 | COc1cc(O)c(C(=O)c2ccccc2)cc1S(=O)(=O)O [Sulisobenzone] | UV-B, UV-A2
5 | CCCCC(CC)COC(=O)c1ccccc1O (stereo not shown) [Octisalate, 2-ethylhexyl salicylate] | UV-B (UV-B: 290-320 nm)
6 | CCCCC(CC)COC(=O)C(C#N)=C(c1ccccc1)c1ccccc1 (stereo not shown) [Octocrylene, 2-ethylhexyl-2-cyano-3.3 diphenylacrylate] | UV-B (UV-B: 290-320 nm)
7 | COc1ccc(C(=O)c2ccccc2)c(O)c1 [Oxybenzone] | UV-B, UV-A2
